In ChEMBL document CHEMBL1201862, “PubChem BioAssay data set” (2004):
Active and inactive are the calls of the source.

How the values were obtained:
[1] = Luminescence Cell-Based Dose Retest to Confirm Inhibitors of Cancer Stem Cells. [Related pubchem assays (depositor defined):AID2717, AID2721]; assay type: functional; conditions: Homo sapiens
[2] = biological target: Neurotensin receptor type 1 (Homo sapiens, UniProt P30989); assay type: functional;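 also: Image-based confirmatory dose-response assay measuring agonist activity at NTR1; NTR1-expressing U2OS osteosarcoma cells imaged for beta-arrestin GFP spot formation; agonist potency where compounds increase beta-arrestin recruitment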
Chain of Neurotensin receptor type 1 (P30989 whole entry): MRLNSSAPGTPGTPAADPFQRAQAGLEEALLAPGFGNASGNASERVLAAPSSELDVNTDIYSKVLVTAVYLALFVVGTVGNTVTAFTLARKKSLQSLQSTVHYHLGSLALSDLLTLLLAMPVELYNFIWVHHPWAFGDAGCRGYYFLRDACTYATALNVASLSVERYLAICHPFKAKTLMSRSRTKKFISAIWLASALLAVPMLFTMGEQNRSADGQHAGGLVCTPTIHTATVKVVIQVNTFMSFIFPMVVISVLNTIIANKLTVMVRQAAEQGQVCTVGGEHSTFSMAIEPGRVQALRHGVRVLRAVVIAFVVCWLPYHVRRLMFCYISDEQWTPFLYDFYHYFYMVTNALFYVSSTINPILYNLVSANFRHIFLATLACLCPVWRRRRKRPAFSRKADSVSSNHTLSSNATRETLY

[3] = biological target: Female germline-specific tumor suppressor gld-1 (Caenorhabditis elegans, UniProt Q17339); assay: blockers of GLD-1/TGE RNA complex formation – biochemical, fluorescence polarization, C. elegans, dose response (AID 2802);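 also: fluorescence polarization of labeled TGE RNA bound by purified gld-1 protein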
Chain of Female germline-specific tumor suppressor gld-1 (Q17339 whole entry): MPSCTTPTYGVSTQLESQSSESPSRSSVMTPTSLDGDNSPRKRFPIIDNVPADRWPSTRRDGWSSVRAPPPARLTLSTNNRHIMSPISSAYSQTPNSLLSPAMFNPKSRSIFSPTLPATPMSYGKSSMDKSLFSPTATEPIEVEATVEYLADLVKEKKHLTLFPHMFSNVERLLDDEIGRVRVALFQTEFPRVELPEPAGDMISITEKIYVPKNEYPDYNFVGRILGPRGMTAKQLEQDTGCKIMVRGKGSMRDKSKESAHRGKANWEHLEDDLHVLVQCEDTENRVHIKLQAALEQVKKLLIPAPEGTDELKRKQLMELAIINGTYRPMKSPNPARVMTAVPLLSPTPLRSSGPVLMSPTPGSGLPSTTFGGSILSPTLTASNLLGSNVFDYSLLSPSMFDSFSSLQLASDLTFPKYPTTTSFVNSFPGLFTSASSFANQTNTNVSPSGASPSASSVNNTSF

Protein Rev = Protein Rev (Human immunodeficiency virus type 1 group M subtype B (isolate HXB2)(HIV-1), UniProt P04618); assay: blockers of HIV Rev/RRE RNA complex – biochemical, fluorescence polarization, HIV-1, dose response (AID 434976); parameters: species or system Human immunodeficiency virus 1
Chain of Protein Rev (P04618 whole entry): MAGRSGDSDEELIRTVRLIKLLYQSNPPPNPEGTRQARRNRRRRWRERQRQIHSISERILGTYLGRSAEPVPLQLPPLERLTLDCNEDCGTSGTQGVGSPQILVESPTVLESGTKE

[4] = viability loss in Vero cells – cytotoxicity control for Vif-APOBEC3G degradation inhibitor project, dose response (AID 1117358); assay type: functional; conditions: Vero
[5] = viability inhibitors of stage V gametocytes – luminescence, dose response (AID 1117278); assay type: functional, cell-based;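 also: gametocytes exposed to compound for 24 hours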
[6] = viability loss in human Jurkat cells – cell-based, luminescence, cytotoxicity control for P. falciparum gametocyte viability project, dose response (AID 1117277); assay type: functional;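 also: potency reflects loss of cellular ATP meaning fewer viable cells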
Estrogen receptor beta [7] = biological target: T1, Estrogen receptor beta (Homo sapiens, UniProt Q92731);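 also: recombinant ER-beta bound to coactivator SRC1 peptide in presence of estradiol agonist; inhibitors block coactivator peptide binding and lower the FRET signal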
T1 sequence (Q92731 whole entry): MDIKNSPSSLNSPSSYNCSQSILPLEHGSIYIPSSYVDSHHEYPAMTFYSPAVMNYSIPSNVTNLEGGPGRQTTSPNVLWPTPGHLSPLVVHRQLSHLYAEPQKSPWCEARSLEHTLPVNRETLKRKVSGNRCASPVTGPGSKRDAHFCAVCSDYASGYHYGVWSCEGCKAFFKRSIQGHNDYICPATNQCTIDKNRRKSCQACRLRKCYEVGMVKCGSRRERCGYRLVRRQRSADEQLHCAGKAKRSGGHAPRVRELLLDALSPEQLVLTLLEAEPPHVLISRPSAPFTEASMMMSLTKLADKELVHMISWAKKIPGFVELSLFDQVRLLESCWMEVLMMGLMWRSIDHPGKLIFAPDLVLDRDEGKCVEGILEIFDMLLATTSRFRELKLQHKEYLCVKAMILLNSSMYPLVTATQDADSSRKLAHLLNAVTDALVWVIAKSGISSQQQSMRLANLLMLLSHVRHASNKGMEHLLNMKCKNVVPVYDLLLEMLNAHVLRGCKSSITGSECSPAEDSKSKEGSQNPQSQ

Estrogen receptor beta [8] = biological target: T1, Estrogen receptor beta; assay: blockers of SRC-3 recruitment to ERβ – biochemical, ELISA, streptavidin-HRP readout, orthogonal assay, confirmation (AID 1060)
[9] = HEK-293T cell viability reduction – luminescence, B-cell screen hits, cytotoxicity control for BCR NF-kB inhibitor project, dose response (AID 489021); assay type: functional, cell-based;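 also: HEK-293T cells carrying an NF-kB luciferase reporter; cells exposed to compound for about 14 hours before viability readout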
[10] = Luminescence Cell-Based Dose Confirmation HTS to Identify Inhibitors of Polyadenylation.; assay type: functional
[11] = biological target: T2, Oxysterols receptor LXR-beta (Homo sapiens, UniProt P55055); assay: LXR agonists, Gal4 luciferase reporter, dose response, counter-screen for ssDAF-12 agonist project, cell-based, luminescence, HEK293, S. stercoralis campaign (AID 720737); assay type: functional; conditions: read-out: IC50 (the source's name)
T2 sequence (P55055 whole entry): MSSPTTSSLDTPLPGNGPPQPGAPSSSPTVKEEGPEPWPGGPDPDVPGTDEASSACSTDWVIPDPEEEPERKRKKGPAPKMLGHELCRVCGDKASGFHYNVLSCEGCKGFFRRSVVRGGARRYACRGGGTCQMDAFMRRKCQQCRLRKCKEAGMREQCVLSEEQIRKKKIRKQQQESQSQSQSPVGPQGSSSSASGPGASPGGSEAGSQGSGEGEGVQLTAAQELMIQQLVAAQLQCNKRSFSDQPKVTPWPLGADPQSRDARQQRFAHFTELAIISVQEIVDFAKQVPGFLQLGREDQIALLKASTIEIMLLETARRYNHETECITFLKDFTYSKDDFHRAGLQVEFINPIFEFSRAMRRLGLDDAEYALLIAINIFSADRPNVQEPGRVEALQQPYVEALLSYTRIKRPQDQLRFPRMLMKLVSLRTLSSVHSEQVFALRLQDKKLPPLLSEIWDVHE

[12] = Luminescence-based cell-based high throughput dose response assay to identify activators of the DAF-12 from the parasite S. stercoralis (ssDAF-12).; assay type: functional
Protein Tat = Protein Tat (Human immunodeficiency virus type 1 group M subtype B (isolate HXB2)(HIV-1), UniProt P04608); assay type: functional;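 also: tat binding to TAR RNA read out by fluorescence polarization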
Chain of Protein Tat (P04608 whole entry): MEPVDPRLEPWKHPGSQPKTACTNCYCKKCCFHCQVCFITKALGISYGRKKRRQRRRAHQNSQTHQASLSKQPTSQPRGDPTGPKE

[13] = biological target: DNA dC->dU-editing enzyme APOBEC-3A (Homo sapiens, UniProt P31941); assay: Dose Response confirmation of small molecule APOBEC3A DNA Deaminase Inhibitors via a fluorescence-based single-stranded DNA deaminase assay. [Related pubchem assays (depositor defined):AID493011, AID493024]; assay type: functional
Chain of DNA dC->dU-editing enzyme APOBEC-3A (P31941 whole entry): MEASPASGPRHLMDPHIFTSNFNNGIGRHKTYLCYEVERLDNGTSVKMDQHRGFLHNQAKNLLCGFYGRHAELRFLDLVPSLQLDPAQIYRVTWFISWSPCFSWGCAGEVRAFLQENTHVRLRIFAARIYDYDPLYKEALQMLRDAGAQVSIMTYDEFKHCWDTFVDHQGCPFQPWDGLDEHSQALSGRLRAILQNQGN

[14] = biological target: DNA dC->dU-editing enzyme APOBEC-3G (Homo sapiens, UniProt Q9HC16); assay type: functional;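 also: Dose-response counterscreen measuring inhibition of APOBEC3G DNA deaminase activity, run while confirming APOBEC3A inhibitors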
Chain of DNA dC->dU-editing enzyme APOBEC-3G (Q9HC16 whole entry): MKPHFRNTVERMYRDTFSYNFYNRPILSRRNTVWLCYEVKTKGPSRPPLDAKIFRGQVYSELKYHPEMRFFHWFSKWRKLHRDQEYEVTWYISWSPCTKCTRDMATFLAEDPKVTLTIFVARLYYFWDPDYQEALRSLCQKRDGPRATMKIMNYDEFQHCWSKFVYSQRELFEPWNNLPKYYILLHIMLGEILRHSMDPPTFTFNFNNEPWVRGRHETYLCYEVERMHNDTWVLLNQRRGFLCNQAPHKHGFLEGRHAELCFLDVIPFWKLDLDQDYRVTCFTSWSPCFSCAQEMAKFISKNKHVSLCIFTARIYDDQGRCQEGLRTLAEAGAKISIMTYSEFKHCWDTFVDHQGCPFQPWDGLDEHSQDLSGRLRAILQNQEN

[15] = biological target: T3, Mannose-6-phosphate isomerase (Homo sapiens, UniProt P34949); assay: MPI enzyme activity inhibition – biochemical, fluorescence intensity, coupled assay, primary screen (AID 1209)
T3 sequence (P34949 whole entry): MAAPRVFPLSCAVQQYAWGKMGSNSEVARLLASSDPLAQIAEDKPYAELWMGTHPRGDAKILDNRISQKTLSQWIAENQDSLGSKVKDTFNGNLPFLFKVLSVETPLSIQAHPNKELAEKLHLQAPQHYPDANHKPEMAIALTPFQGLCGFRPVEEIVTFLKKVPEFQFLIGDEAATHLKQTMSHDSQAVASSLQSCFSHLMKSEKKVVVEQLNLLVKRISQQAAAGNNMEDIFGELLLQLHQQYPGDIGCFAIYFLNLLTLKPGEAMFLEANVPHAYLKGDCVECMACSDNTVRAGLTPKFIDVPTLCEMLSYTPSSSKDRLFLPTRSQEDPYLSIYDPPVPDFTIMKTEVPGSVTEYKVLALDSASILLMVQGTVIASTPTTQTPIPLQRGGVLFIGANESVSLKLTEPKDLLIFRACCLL

[16] = biological target: T3, Mannose-6-phosphate isomerase; assay: MPI inhibition at elevated mannose 6-phosphate – biochemical, fluorescence intensity, high mannose 6-phosphate, primary screen (AID 1220)
[17] = rise of 2N DNA cells, HeLa – IC50, dose response (AID 1117349); assay type: functional, cell-based
[18] = rise of 4N DNA cells, HeLa – IC50, dose response (AID 1117351); assay type: functional, cell-based
[19] = biological target: E3 ubiquitin-protein ligase Mdm2 (Homo sapiens, UniProt Q00987); assay: MDM2-luc reporter signal enhancers, multi-concentration potency testing, MDM2 ubiquitin-protein ligase inhibitor program, whole-cell format, luminescence detection, 384-well microplate (AID 1394); assay type: functional;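 also: MDM2 E3 inhibitors raise luminescence so EC50 is for signal enhancement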
Chain of E3 ubiquitin-protein ligase Mdm2 (Q00987 whole entry): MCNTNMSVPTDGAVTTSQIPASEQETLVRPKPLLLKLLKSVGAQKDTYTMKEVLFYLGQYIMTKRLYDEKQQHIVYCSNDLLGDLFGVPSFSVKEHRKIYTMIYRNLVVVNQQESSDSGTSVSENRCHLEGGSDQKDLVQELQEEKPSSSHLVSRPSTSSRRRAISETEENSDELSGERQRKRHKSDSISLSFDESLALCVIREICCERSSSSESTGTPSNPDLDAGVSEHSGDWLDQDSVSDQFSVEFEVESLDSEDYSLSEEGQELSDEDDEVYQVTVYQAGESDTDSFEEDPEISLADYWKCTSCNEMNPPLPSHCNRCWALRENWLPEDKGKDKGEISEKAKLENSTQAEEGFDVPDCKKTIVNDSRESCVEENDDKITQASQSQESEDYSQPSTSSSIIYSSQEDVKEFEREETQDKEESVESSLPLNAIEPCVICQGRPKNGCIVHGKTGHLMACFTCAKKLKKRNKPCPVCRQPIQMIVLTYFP

[20] = HIV-1 Vif–A3G interaction blockers – biochemical, TR-FRET, GST-Vif 1-94, biotin-A3G peptide, dose response retest, primary screen (AID 1117319); assay type: functional;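 also: TR-FRET signal of purified GST-Vif binding a biotinylated A3G peptide; inhibitors lower the FRET signal by blocking Vif and A3G binding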
[21] = biological target: Heat shock protein HSP 90-alpha (Homo sapiens, UniProt P07900); assay type: functional, organism-based
[22] = viability loss of HMLE_sh_eGFP cells – cell-based, luminescence, counter-screen for HMLE_sh_ECad selective toxicity project, dose response (AID 463074); assay type: functional, Homo sapiens;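 also: HMLE human mammary epithelial cells expressing control shRNA against eGFP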
INS1 = assay: INS-1E survival protection against cytokine death – cell-based, luminescence, retest, dose response (AID 449756); assay type: functional; conditions: Rattus norvegicus;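 also: cell death triggered by IL-1 beta plus TNF-alpha plus IFN-gamma mixture; protective hits raise ATP signal compared with cytokine alone wells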
cells = conditions: HEK293
[23] = biological target: Lysosomal acid glucosylceramidase (Homo sapiens, UniProt P04062); assay: Dose response cell-based high throughput screening assay to identify enhancers of beta-glucosidase activity. [Related pubchem assays: 784 ]; assay type: functional
Chain of Lysosomal acid glucosylceramidase (P04062 whole entry): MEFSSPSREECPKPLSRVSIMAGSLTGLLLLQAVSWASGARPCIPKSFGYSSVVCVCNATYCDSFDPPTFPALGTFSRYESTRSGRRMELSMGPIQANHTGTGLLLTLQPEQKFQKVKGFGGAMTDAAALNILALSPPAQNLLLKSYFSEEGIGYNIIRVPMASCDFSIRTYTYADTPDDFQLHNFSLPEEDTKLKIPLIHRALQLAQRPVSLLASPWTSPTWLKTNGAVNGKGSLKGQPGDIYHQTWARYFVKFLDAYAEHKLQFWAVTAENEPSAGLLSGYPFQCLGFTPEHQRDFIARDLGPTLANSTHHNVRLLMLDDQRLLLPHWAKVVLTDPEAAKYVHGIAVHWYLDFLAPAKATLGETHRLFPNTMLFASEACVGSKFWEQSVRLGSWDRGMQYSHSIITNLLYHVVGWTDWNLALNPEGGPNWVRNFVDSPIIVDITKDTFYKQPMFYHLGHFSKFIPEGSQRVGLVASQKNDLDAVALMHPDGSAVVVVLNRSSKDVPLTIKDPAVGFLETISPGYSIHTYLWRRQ

[24] = biological target: Polyadenylate-binding protein 1 (Homo sapiens, UniProt P11940); assay: blockers of PABP interaction with poly(A) – biochemical, fluorescence polarization, […] (AID 2014)
Chain of Polyadenylate-binding protein 1 (P11940 whole entry): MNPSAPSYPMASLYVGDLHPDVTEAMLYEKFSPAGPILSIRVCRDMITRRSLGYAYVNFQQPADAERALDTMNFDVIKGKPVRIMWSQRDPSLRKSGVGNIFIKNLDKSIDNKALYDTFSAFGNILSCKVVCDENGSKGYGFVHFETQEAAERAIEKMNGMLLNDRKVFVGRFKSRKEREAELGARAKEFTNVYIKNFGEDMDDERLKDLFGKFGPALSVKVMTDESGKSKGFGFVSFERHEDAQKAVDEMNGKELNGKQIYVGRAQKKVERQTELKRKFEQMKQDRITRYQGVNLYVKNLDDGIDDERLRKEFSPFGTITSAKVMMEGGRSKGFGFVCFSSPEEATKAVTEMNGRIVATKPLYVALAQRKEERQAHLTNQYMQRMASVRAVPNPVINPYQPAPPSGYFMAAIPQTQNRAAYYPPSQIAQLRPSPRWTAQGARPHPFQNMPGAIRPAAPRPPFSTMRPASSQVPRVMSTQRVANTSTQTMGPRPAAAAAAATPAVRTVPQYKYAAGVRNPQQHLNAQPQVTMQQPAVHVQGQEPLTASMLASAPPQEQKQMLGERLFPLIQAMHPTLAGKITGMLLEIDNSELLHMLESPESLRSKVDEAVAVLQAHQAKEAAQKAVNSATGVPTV

[25] = biological target: Eukaryotic translation initiation factor 4H (Homo sapiens, UniProt Q15056); assay: eIF4H binding inhibition – biochemical, uHTS, fluorescence polarization, translation initiation inhibitor project, primary screen (AID 2012)
[26] = biological target: T4, Alkaline phosphatase, tissue-nonspecific isozyme (Homo sapiens, UniProt P05186)
T4 sequence (P05186 whole entry): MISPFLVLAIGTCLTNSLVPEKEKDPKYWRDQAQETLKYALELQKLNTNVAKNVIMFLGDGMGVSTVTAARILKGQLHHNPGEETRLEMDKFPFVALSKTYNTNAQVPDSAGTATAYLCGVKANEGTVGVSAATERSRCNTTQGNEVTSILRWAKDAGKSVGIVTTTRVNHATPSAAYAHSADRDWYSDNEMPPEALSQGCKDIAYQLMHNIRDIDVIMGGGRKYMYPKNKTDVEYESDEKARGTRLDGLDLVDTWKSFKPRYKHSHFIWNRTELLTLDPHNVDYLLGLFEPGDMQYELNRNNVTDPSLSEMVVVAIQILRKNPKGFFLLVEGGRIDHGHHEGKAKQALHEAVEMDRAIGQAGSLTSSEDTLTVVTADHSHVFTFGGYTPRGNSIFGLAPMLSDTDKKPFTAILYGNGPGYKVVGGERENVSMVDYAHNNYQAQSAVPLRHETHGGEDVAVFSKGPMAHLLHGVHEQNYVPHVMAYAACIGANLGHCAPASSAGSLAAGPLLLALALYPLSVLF

Structure (SMILES): Cc1ccc(-c2nc(Nc3cccc(O)c3)c3ccccc3n2)cc1
- AC50 [1]: 5.05 µM (active)
- EC50 [2]: 30.6 µM (inactive)

Structure (SMILES): CC(CCC(C)C(C)(C)C)[C@@H]1CC[C@H]2C3C[C@H](OS(O)(=S)=S)[C@H]4C[C@H](OS(O)(=S)=S)[C@@H](OS(O)(=S)=S)C[C@]4(C)[C@H]3CC[C@]12C.Nc1ncc[nH]1 (stereo partly specified)
- IC50 [3]: 3.66 µM (active)
- IC50 (Protein Rev): 8.34 µM (active)

Structure (SMILES): Cc1ccc(S(=O)(=O)N(C)CC(O)Cn2c3ccccc3c3ccccc32)cc1 (stereo unspecified)
- CC50 [4]: > 40 µM (active)

Structure (SMILES): CC1CCCN(CC(O)CN)C1 (stereo unspecified)
- IC50 [5]: > 109 µM (inactive)
- IC50 [6]: > 83.3 µM (inactive)

Structure (SMILES): CCc1nc2oc3cc(OC)ccc3c(=O)c2c(=O)n1Cc1ccco1
- IC50 (Estrogen receptor beta [7]): 30.7 µM (not active)
- IC50 (Estrogen receptor beta [8]): 0.0586 µM (not active)

Structure (SMILES): O=C(CCl)Nc1ccccc1Sc1ccccc1
- IC50 [9]: > 80 µM (inactive)

Structure (SMILES): COc1ccc2c(c1)c1nnc(SC)nc1n2C
- EC50 [10]: > 120 µM (not active)

Structure (SMILES): COc1cccc(-c2nc3ccccc3s2)c1O
- EC50 [11]: > 67.6 µM (inactive)
- IC50 [12]: > 67.6 µM (inactive)

Structure (SMILES): CCn1c(SCC(=O)Nc2cc(C)on2)nnc1-c1cccnc1
- IC50 (Protein Tat): > 100 µM (active)

Structure (SMILES): CCN(CC(=O)Nc1c(F)cccc1F)C(=O)c1cccc(-n2cccc2)c1
- IC50 [13]: 15.9 µM (active)
- IC50 [14]: 34.8 µM (active)
- IC50 (Protein Tat): > 100 µM (active)

Structure (SMILES): CCOC(=O)[C@H]1[C@H]2COc3cc(OC)ccc3[C@@H]2N2C(=O)c3ccc(C)cc3NC(=O)[C@@]12C
- IC50 [5]: > 109 µM (inactive)
- IC50 [6]: > 83.3 µM (inactive)

Structure (SMILES): Cc1ccc([N+](=O)[O-])cc1/N=C/C1=C(O)c2ccccc2CC1
- IC50 [15]: > 50 µM (not active)
- IC50 [16]: > 50 µM (not active)

Structure (SMILES): CCOc1ccc2nc3cc(N)ccc3c(N)c2c1 [ETHACRIDINE LACTATE]
- IC50 [17]: > 10 µM (inactive)
- IC50 [18]: > 10 µM (inactive)

Structure (SMILES): Nc1cccc2c1C(=O)N(C(=O)/C=C/c1cccc(Br)c1)C2=O
- EC50 [19]: 7.82 µM (active)
- IC50 [20]: > 100 µM (active)

Structure (SMILES): O=C(/C=C/c1ccc(Cl)c([N+](=O)[O-])c1)c1cccnc1
- AC50 [1]: 4.16 µM (active)
- AC50 [21]: 1.31 µM (active)
- AC50 [22]: 56.4 µM (active)
- EC50 [2]: > 40 µM (inactive)

Structure (SMILES): COc1ccc(C(=O)NC(=S)NNC(=O)c2cnccn2)cc1OC
- AC50 (INS1): 1.03 µM (active)
- IC50 [15]: > 50 µM (not active)

Structure (SMILES): c1ccc2c(c1)ncn2CCOc1ccc2c(c1)CCC2
- AC50 (cells): 36.7 µM (active)

Structure (SMILES): O=C(NCC(=O)N(c1cccnc1)C(C(=O)NC1CCCC1)c1ccco1)c1cccs1 (stereo unspecified)
- EC50 [23]: > 50 µM (not active)

Structure (SMILES): CC(=O)c1ccc(NC(=O)CSCCO)cc1
- EC50 [23]: > 50 µM (not active)

Structure (SMILES): Cc1cnc(NC(=O)Nc2ccc(Cl)cc2)s1
- IC50 [9]: > 80 µM (inactive)

Structure (SMILES): CCOc1ccc(CCNC(=O)CN2C(=O)CCSc3ccccc32)cc1OCC
- EC50 [10]: > 120 µM (not active)

Structure (SMILES): Cc1c(C(=O)O/N=C(\N)c2ccccn2)cccc1[N+](=O)[O-]
- EC50 [11]: > 67.6 µM (inactive)
- IC50 [12]: > 67.6 µM (inactive)

Structure (SMILES): CCC(=O)N1CCc2cc(S(=O)(=O)NCCC(=O)NC3CCCc4ccccc43)ccc21 (stereo unspecified)
- IC50 [20]: > 100 µM (active)

Structure (SMILES): O=C1NCCCC2c3cc(O)c4ccccc4c3OC12N1CCCCC1 (stereo unspecified)
- IC50 (Estrogen receptor beta [7]): 13.6 µM (active)
- IC50 (Estrogen receptor beta [8]): > 50 µM (not active)

Structure (SMILES): N#Cc1c(N2CCN(c3ccc(F)cc3)CC2)nc(N)c2c(N)nc3c(c12)CC(=O)N3C1CC1
- IC50 [16]: > 50 µM (not active)

Structure (SMILES): CCN1C(NCc2cc(OC)c(OC)c(OC)c2)=N[C@@H](c2ccccc2)[C@H](C(=O)OC)[C@H]1C
- IC50 [24]: 11.9 µM (active)
- IC50 [25]: > 100 µM (inactive)

Structure (SMILES): CC(Oc1ccccc1)C(=O)NNC(=O)c1ccccn1 (stereo unspecified)
- EC50 [26]: 66.5 µM (not active)

Structure (SMILES): COc1ccc(CC(=O)OCn2nnc3ccccc3c2=O)cc1
- CC50 [4]: > 40 µM (active)
